Laboratory results as given in US20210246115A1 (Bioimics AB, priority 2017, published 2021).
Where a name gives a salt, the structure may show the parent alone. Read-outs that look alike come from different tables or passages of the source.

Assays:
[1] = test system: Escherichia coli (ATCC25922); assay: MIC, broth microdilution (CLSI), Escherichia coli; settings: Escherichia coli
H. pylori ATCC 43504 = assay: MIC, H. pylori ATCC 43504; type: cell-based; settings: Helicobacter pylori, ATCC43504; Table XIV B. Gram-negative bacteria
A. baumannii ATCC 17978 = assay: MIC, A. baumannii ATCC 17978; type: cell-based; settings: Acinetobacter baumannii, ATCC17978; Table XIV B. Gram-negative bacteria
K. pneumoniae ATCC 43816 = assay: MIC, K. pneumoniae ATCC 43816; type: cell-based; settings: Klebsiella pneumoniae, ATCC43816; Table XIV B. Gram-negative bacteria
[2] = test system: P. aeruginosa NTUH974 (MDR); assay: MIC, P. aeruginosa NTUH974 (MDR); type: cell-based; settings: Pseudomonas aeruginosa, read-out: P. aeruginosa NTUH974 (MDR) MIC
[3] = test system: Staphylococcus aureus subsp. aureus (ATCC29213); assay: MIC, broth microdilution (CLSI), Staphylococcus aureus ATCC29213; type: cell-based; settings: Staphylococcus aureus
[4] = test system: Pseudomonas aeruginosa (ATCC27853); assay: MIC, broth microdilution (CLSI), Pseudomonas aeruginosa; type: cell-based
E. faecium ATCC 700221 = assay: MIC, E. faecium ATCC 700221; type: cell-based; settings: Enterococcus faecium
[5] = test system: N. gonorrhoeae ATCC 700825; assay: MIC, N. gonorrhoeae ATCC 700825; type: cell-based; settings: Neisseria gonorrhoeae, ATCC700825; Table XIV B. Gram-negative bacteria
[6] = test system: S. aureus USA300 MRSA BAA-1717; assay: MIC, S. aureus USA300 MRSA BAA-1717; type: cell-based; settings: Staphylococcus aureus, read-out: S. aureus USA300 MRSA BAA-1717 MIC
S. pneumoniae ATCC 49619 = assay: MIC, S. pneumoniae ATCC 49619; type: cell-based; settings: Streptococcus pneumoniae, ATCC49619; Table XIV A. Gram-positive bacteria
M. fortuitum ATCC 110 = assay: MIC, M. fortuitum ATCC 110; type: cell-based; settings: Mycolicibacterium fortuitum, ATCC110; Table XIV A. Gram-positive bacteria
[7] = test system: E. coli RNase P RNA, M1 RNA; assay: Inhibition of bacterial RNase P activity, IC50 determination (cleavage of pATSerUG by M1 RNA); type: biochemical; settings: NI: No inhibition
H. influenzae ATCC 49247 = assay: MIC, H. influenzae ATCC 49247; type: cell-based; settings: Haemophilus influenzae, ATCC49247; Table XIV B. Gram-negative bacteria
[8] = test system: Enterococcus faecalis (ATCC29212); assay: MIC, broth microdilution (CLSI), Enterococcus faecalis; type: cell-based
[9] = test system: E. coli JW5503 (efflux defective); assay: MIC, E. coli JW5503 (efflux defective); type: cell-based; settings: Escherichia coli, read-out: E. coli JW5503 (efflux defective) MIC
M. phlei ATCC 11758 = assay: MIC, M. phlei ATCC 11758; type: cell-based; settings: Mycolicibacterium phlei, ATCC11758; Table XIV A. Gram-positive bacteria
[10] = test system: S. aureus MRSA ATCC 33591; assay: MIC, S. aureus MRSA ATCC 33591; type: cell-based; settings: Staphylococcus aureus, read-out: S. aureus MRSA ATCC 33591 MIC
[11] = ATCC25922, read-out: E. coli ATCC 25922 MIC, Table XIII
[12] = ATCC25922, read-out: E. coli ATCC 25922 MIC, Table XIV B. Gram-negative bacteria
[13] = Table XIV A. Gram-positive bacteria

| Compound | MIC [1, 11] [µg/mL] | MIC [1, 12] [µg/mL] | MIC (H. pylori ATCC 43504) [µg/mL] | MIC (A. baumannii ATCC 17978) [µg/mL] | MIC (K. pneumoniae ATCC 43816) [µg/mL] | MIC [5] [µg/mL] | MIC (S. pneumoniae ATCC 49619) [µg/mL] | MIC (M. fortuitum ATCC 110) [µg/mL] | IC50 [7] [µM] | MIC (H. influenzae ATCC 49247) [µg/mL] | MIC [9] [µg/mL] | MIC (M. phlei ATCC 11758) [µg/mL] | also measured |
| --- | --- | --- | --- | --- | --- | --- | --- | --- | --- | --- | --- | --- | --- |
| N#Cc1ccc2c(c1)c(C(CCNCCCN)c1cccc(OC(F)(F)F)c1)cn2C1CCCCC1 (stereo not shown) [Compound 372, 3-(3-((3-aminopropyl)amino)-1-(3-(trifluoromethoxy)phenyl)propyl)-1-cyclohexyl-1H-indole-5-carbonitrile, dihydrochloride salt] | 4 | 2 | 16 | 4 | 2 | 4 | 8 | 4 | 9.1 | 4 | 2 | 4 | MIC [2]: 8 µg/mL; MIC ([3]; ATCC29213, read-out: S. aureus ATCC 29213 MIC, Table XIII): 4 µg/mL; MIC ([3]; ATCC29213, read-out: S. aureus ATCC 29213 MIC, Table XIV A. Gram-positive bacteria): 2 µg/mL; MIC ([4]; ATCC27853, read-out: P. aeruginosa ATCC 27853 MIC): 8 µg/mL; MIC (E. faecium ATCC 700221; ATCC700221, read-out: E. faecium ATCC 700221 MIC): 2 µg/mL; MIC [6]: 2 µg/mL; MIC ([8]; ATCC29212, read-out: E. faecalis ATCC 29212 MIC): 2 µg/mL; MIC [10]: 4 µg/mL |
| Cc1cccc(-c2ccc3c(c2)c(CCCNCCCN)cn3C2CCCCC2)c1.Cl.Cl [Compound 360, N1-(3-(1-cyclohexyl-5-(m-tolyl)-1H-indol-3-yl)propyl)propane-1,3-diamine hydrochloride salt] | 4 | 2 | 8 | 4 | 4 | 2 | 8 | 4 | 7.8 | 2 | 2 | 4 | MIC ([2]; Table XIV B. Gram-negative bacteria): 8 µg/mL; MIC ([3]; ATCC29213, Table XIII, read-out: S. aureus ATCC 29213 MIC): 4 µg/mL; MIC ([3]; ATCC29213, Table XIV A. Gram-positive bacteria, read-out: S. aureus ATCC 29213 MIC): 4 µg/mL; MIC ([4]; ATCC27853, Table XIV B. Gram-negative bacteria, read-out: P. aeruginosa ATCC 27853 MIC): 8 µg/mL; MIC (E. faecium ATCC 700221; ATCC700221, Table XIV A. Gram-positive bacteria, read-out: E. faecium ATCC 700221 MIC): 2 µg/mL; MIC [6, 13]: 2 µg/mL; MIC ([8]; ATCC29212, Table XIV A. Gram-positive bacteria, read-out: E. faecalis ATCC 29212 MIC): 2 µg/mL; MIC [10, 13]: 2 µg/mL |
